According to patent US20060148767A1, “Use of acyl salicylates as heat shock inducers” (priority 2001, published 2006):

Key:
heat shock response = conditions: cited from earlier work
human Hsp70 promoter = assay: Heat shock induction in L 929 fibroblast cells, luciferase under human Hsp70 promoter; type: cell-based, mouse; conditions: for increase of heat shock response with respect to the control: 37° C.; for increase of heat shock response compared with the control: 40° C.
Experimental: Acetyl, propanoyl, n-butanoyl, n-octanoyl and n-decanoyl salicylates were tested for their ability to induce heat shock response in an in vitro system using L 929 fibroblast cells, in which the enzyme luciferase was cloned under the transcriptional control of the human Hsp70 promoter (Proc. Natl. Acad. Sci USA, 92, 7207-7211, 1995). The effects of the mentioned compounds on heat shock induction at different temperatures have been compared using Bimoclomol as reference compound (Table 1). As reported in Table 1, propanoyl salicylate and Bimoclomol at 37° C. increase the heat shock response by 33% with respect to the control, while n-butanoyl, n-octanoyl and n-decanoyl salicylates increase it up to 67%. […] (Nature Medicine, 3, 1150-1154, 1997).

Hsp70 = assay: Heat shock response in NHEK cells, Hsp70 ELISA; type: cell-based; conditions: NHEK keratinocytes, 18 hours at 37° C., no heat shock
Experimental: Acetyl, propanoyl, n-butanoyl, n-octanoyl and n-decanoyl salicylates, synthesized according to Example 1 or 2, were tested for their ability to induce heat shock response in an in vitro system using cells NHEK.
NHEK cells, grown at 37° C. to 75% confluence, were treated with different doses of propanoyl, n-butanoyl, n-octanoyl and n-decanoyl salicylates at a concentration range from 0 to 50 μM, using 50 mM sorbitol and heat shock at 42° C. as positive controls. After incubation for 18 hours at 37° C., Hsp70 levels were quantitatively determined on keratinocytes using the ELISA kit by StressGen.

UV-B induced erythema = assay: Prevention and repair of UV-B induced skin damage; type: in vivo; conditions: guinea pigs, topical; untreated: erythema observed four hours after irradiation
Experimental: The effect of acyl-salicylates in the prevention and repair of UV-B induced skin damage was determined with an in vivo test, on female Hartley albino guinea pigs, using the propanoyl salicylate as model compound. The animals, that weighed about 400 g, were shaved with a commercial cream 24 h before irradiation. Propanoyl salicylate was applied 120 minutes before irradiation on the head distal area, on a 5 cm^2 rectangular area at a dose of about 2 mg/cm^2, the head proximal area serving as control site. A bank of four lamps providing a mean irradiation of about 1.2 mW/cm^2 at 310 nm was used as UV-B source. Following light exposure, sites were occluded with a cotton pad. The erythema following UV-B exposure was evaluated according to the following scale: not irradiated, 0, pale pink; slight erythema, 1, pink; moderate erythema, 2, intense pink; severe erythema, 3, intense pink, edema; ulcerated erythema, 4, intense pink, ulceration. One MED (minimal erythemal dose to obtain an erythema grade 1) for untreated animals corresponds to 5 minutes exposure at 400 mJ/cm^2. The protection effect was calculated as the ratio of protected skin MED to unprotected skin MED.

[1] = Stability as crystalline compound and in solution; type: physicochemical
Experimental: The mixture was stirred at room temperature for 30 minutes and kept at 70° C. for 2 hours. The reaction mixture was poured into ice water and the precipitated product was filtered in vacuo, dried and recrystallized tree times from toluene or ethanol as solvent. […] The ^1H-NMR spectrum of the synthesized propanoyl salicylate is consistent with the proposed structure.

[2] = target: heat shock transcription factor (HSF) (Homo sapiens, UniProt Q00613); conditions: 2-30 mM; cited from earlier work
Sequence of heat shock transcription factor (HSF) (Q00613 whole entry): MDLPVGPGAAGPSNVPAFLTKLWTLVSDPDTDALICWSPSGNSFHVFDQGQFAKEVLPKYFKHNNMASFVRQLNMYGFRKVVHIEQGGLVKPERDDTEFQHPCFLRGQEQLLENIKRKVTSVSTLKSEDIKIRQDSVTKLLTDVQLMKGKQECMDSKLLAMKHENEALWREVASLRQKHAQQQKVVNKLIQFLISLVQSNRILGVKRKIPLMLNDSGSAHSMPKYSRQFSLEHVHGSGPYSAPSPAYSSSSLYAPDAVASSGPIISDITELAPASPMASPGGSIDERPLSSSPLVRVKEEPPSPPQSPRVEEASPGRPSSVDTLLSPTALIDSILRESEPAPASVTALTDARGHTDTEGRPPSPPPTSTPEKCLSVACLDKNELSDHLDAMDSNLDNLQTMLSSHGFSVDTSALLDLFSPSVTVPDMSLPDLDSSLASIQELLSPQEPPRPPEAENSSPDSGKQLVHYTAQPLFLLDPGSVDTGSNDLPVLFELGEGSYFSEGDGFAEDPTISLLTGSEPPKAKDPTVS

[3] = temperature stress 37° C., control (None) 0.3
[4] = temperature stress 40° C., control (None) 4.6

Structure (SMILES) | temperature of maximum induction activity (heat shock response) [°C] | increase of heat shock response with respect to the control (human Hsp70 promoter) [%] | increase of heat shock response compared with the control (human Hsp70 promoter) [%] | Luciferase activity (human Hsp70 promoter; [3]) [arbitrary units × 10^−5] | Luciferase activity (human Hsp70 promoter; [4]) [arbitrary units × 10^−5] | increase of Hsp70 levels (Hsp70; 50 μM) | time after UV-B irradiation at which erythema appeared in the treated area (UV-B induced erythema) [h] | increase of Hsp70 levels (Hsp70; 5 μM) | stability [1] | heat shock gene transcription [2]
OC(CO/N=C(\Cl)c1cccnc1)CN1CCCCC1 (stereo not shown) [Bimoclomol, reference compound] | 43 | 33 | 20 | 0.4 | 5.5 |  |  |  |  | 
CCCCCCCC(=O)OC(=O)c1ccccc1O [Octanoyl salicylate, n-octanoyl salicylate] |  |  |  | 0.5 | 6.3 | up to 130% |  |  |  | 
CCC(=O)OC(=O)c1ccccc1O [Propanoyl salicylate] |  | 33 | 107 | 0.4 | 9.5 |  | 7 to 10 | up to 89% | compatible with its use in cosmetic and pharmaceutical formulations | 
O=C([O-])c1ccccc1O.[Na+] [sodium salicylate] |  |  |  |  |  |  |  |  |  | does not induce heat shock gene transcription
